Source: patent US9718790B2, “Triazine derivative and pharmaceutical composition having an analgesic activity comprising the same” (SHIONOGI & CO., LTD., priority 2010, dated 2017)

Each compound was assayed against human P2X3 receptor (Homo sapiens (Human), UniProt P56373) (assay: Evaluation of human P2X3 receptor inhibitory activity (Fluo-3 calcium fluorescence, FDSS 3000, ATP stimulation)). Details: C6BU-1 cells stably expressing human P2X3 receptor.
Type: cell-based
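Note: stimulus was 50 nM ATP with fluorescence followed for 3 min, and the response per well was peak post-ATP fluorescence divided by the reading at measurement start.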

Sequence of human P2X3 receptor (P56373 whole entry): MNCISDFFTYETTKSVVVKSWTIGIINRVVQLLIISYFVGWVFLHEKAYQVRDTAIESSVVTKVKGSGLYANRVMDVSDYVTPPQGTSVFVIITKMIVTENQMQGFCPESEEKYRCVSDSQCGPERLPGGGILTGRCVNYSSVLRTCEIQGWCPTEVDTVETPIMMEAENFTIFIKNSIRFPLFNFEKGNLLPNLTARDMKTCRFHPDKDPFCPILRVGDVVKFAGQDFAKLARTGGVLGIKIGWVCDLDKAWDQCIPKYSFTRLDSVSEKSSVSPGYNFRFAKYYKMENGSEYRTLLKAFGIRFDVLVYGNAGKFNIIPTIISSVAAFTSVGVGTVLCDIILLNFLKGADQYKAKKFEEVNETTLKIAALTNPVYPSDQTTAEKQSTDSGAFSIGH

Structure (SMILES)	IC50 [nM]
CCn1c(=O)[nH]/c(=N\c2ccc(Oc3ccc(C)c(C(=O)OC)c3)cc2)n(Cc2ccc(Cl)cc2)c1=O [Compound I-2015]	32
Cc1cc(/N=c2\[nH]c(=O)n(CCC(=O)O)c(=O)n2Cc2ccc(Cl)cc2)ccc1CC(C)C [Compound I-1255]	48
CC(C)Cc1ccc(/N=c2\[nH]c(=O)n([C@H](C)[C@H](C)C(=O)O)c(=O)n2Cc2ccc(Cl)cc2)cc1Cl [Compound I-1445]	4
O=c1ccccn1-c1ccc(/N=c2\[nH]c(=O)n(CCOC3CCCCO3)c(=O)n2Cc2ccc(Cl)cc2)cc1 (stereo not drawn) [Compound I-2040]	23
CCOC(=O)CCCn1c(=O)[nH]/c(=N\c2ccc(Oc3ccncc3)cc2)n(Cc2ccc(C)cc2)c1=O [Compound I-1238]	2
CCn1c(=O)[nH]/c(=N\c2ccc(Oc3ccc(C(N)=O)nc3)cc2)n(Cc2ccc(Cl)cc2)c1=O [Compound I-2119]	1
CCn1c(=O)[nH]/c(=N\c2ccc(Oc3cccc(CO)c3)cc2)n(Cc2ccc(Cl)cc2)c1=O [Compound I-2065]	54
Cc1ccc(Cn2c(=O)n(CCC(=O)O)c(=O)[nH]/c2=N\c2ccc(OC(C)C)cc2F)cc1 [Compound I-2049]	85
COC(=O)[C@@H](C)Cn1c(=O)[nH]/c(=N\c2ccc(CC(C)C)c(F)c2)n(Cc2ccc(Cl)cc2)c1=O [Compound I-1254]	45
CCOC(=O)C1CCC(n2c(=O)[nH]/c(=N\c3ccc(OC(C)C)c(C)c3)n(Cc3ccc(Cl)cc3)c2=O)CC1 (stereo not drawn) [Compound I-0718]	93
CC(C)Oc1ccc(/N=c2\[nH]c(=O)n(C[C@@H]3CC(=O)N([C@H](C)c4ccccc4)C3)c(=O)n2Cc2ccc(Cl)cc2)cc1F [Compound I-0662]	22
CC(C)Oc1ccc(/N=c2\[nH]c(=O)n(CCc3n[nH]c(=O)o3)c(=O)n2Cc2ccc(Cl)cc2)cc1F [Compound I-0646]	28
O=C(O)c1cc(Oc2ccc(/N=c3\[nH]c(=O)[nH]c(=O)n3Cc3ccc(Cl)cc3)cc2F)ccn1 [Compound I-2141]	7
CCn1c(=O)[nH]/c(=N\c2ccc(Oc3cncc(C(=O)O)c3)cc2)n(Cc2ccc(C)cc2)c1=O [Compound I-2078]	8
O=c1[nH]/c(=N\c2ccc(OC3CCC3)cc2)n(Cc2ccc(Cl)cc2)c(=O)n1CCCO [Compound I-1918]	12
O=c1[nH]/c(=N\c2ccc(Oc3cncc(CO)c3)cc2)n(Cc2ccc(Cl)cc2)c(=O)n1CCO [Compound I-2079]	38
COC(=O)[C@H](C)[C@H](C)n1c(=O)[nH]/c(=N\c2ccc3nc(C)ccc3c2)n(Cc2ccc(C)cc2)c1=O [Compound I-1324]	9
Cc1ccc(Cn2c(=O)n(CCCC(=O)O)c(=O)[nH]/c2=N\c2ccc(Oc3ccncc3)cc2)cc1 [Compound I-1243]	12
CCn1c(=O)[nH]/c(=N\c2ccc(Oc3cc(C(=O)OC)ncn3)cc2)n(Cc2ccc(Cl)cc2)c1=O [Compound I-2206]	12
CCc1cc2cc(/N=c3\[nH]c(=O)n(C[C@H](C)C(=O)OC)c(=O)n3Cc3ccc(Cl)cc3)ccc2s1 [Compound I-1947]	353
CCn1c(=O)[nH]/c(=N\c2ccc(Oc3ccccc3C(=O)OC)cc2)n(Cc2ccc(Cl)cc2)c1=O [Compound I-1988]	391
CCOC(=O)CCn1c(=O)[nH]/c(=N\c2ccc(Oc3ccncc3)cc2)n(Cc2ccc(Cl)cc2)c1=O [Compound I-1205]	2
COC(=O)[C@@H](C)Cn1c(=O)[nH]/c(=N\c2ccc(Oc3cc(C)nc(C)c3)cc2)n(Cc2ccc(C)cc2)c1=O [Compound I-1240]	18
Cc1cc(/N=c2\[nH]c(=O)n(CCC(=O)O)c(=O)n2Cc2ccc(Cl)cc2)ccc1OC1CCC1 [Compound I-1407]	36
COC(=O)[C@@H](C)[C@@H](C)n1c(=O)[nH]/c(=N\c2ccc(OCC3CC3)cc2)n(Cc2ccc(C)cc2)c1=O [Compound I-1314]	59

Same assay, conditions: C6BU-1 cells stably expressing human P2X3 receptor, Fluo-3 fluorescence, FDSS 3000

Structure (SMILES)	IC50 [nM]
COC(=O)CC1(Cn2c(=O)[nH]/c(=N\c3ccc(OC(C)C)c(C)c3)n(Cc3ccc(Cl)cc3)c2=O)CC1 [Compound I-0978]	13
Cc1ccc(Cn2c(=O)n(C[C@@H](C)C(=O)O)c(=O)[nH]/c2=N\c2ccc(OC(C)C)cc2)cc1 [Compound I-1105]	152
CCOC(=O)C1(Cn2c(=O)[nH]/c(=N\c3ccc(OCC4CC4)c(Cl)c3)n(Cc3ccc(C)cc3)c2=O)CC1 [Compound I-0970]	20
CCc1nc2ccc(/N=c3\[nH]c(=O)n(CC(N)=O)c(=O)n3Cc3ccc(Cl)cc3)cc2s1 [Compound I-1805]	5
CCOC(=O)CCn1c(=O)[nH]/c(=N\c2ccc(OC(C)C)c(C)c2)n(Cc2ccc(Cl)cc2)c1=O [Compound I-1155]	9
CCc1nc2ccc(/N=c3\[nH]c(=O)n(CC(=O)NCCO)c(=O)n3Cc3ccc(Cl)cc3)cc2s1 [Compound I-1808]	4
CCc1cc2cc(/N=c3\[nH]c(=O)n(C[C@H](C)C(=O)OC)c(=O)n3Cc3ccc(Cl)cc3)ccc2s1 [Compound I-1947]	677
CCOc1ccc(Cc2nc(=O)n(C[C@H](C)C(=O)OC)c(=O)n2Cc2ccc(Cl)cc2)cc1 [Compound I-1864]	186
CNC(=O)c1cc(Oc2ccc(/N=c3\[nH]c(=O)[nH]c(=O)n3Cc3ccc(Cl)cc3)cc2)ccn1 [Compound I-1846]	15

Same assay, conditions: human P2X3 receptor, Test Example 1

Structure (SMILES)	IC50 [nM]
CCn1c(=O)[nH]/c(=N\c2ccc(Oc3cc(C(=O)OC)sn3)cc2)n(Cc2ccc(Cl)cc2)c1=O [Compound I-2247]	3
CCOC(=O)CN(C(=O)OC(C)(C)C)c1cc(Oc2ccc(/N=c3\[nH]c(=O)n(CC)c(=O)n3Cc3ccc(Cl)cc3)cc2)ccn1 [Compound I-2540]	104
CCc1cc2cc(/N=c3\[nH]c(=O)n(CC4COC(C)(C)OC4)c(=O)n3Cc3ccc(Cl)cc3)ccc2o1 [Compound I-2312]	5
COc1cccc(Oc2ccc(/N=c3\[nH]c(=O)n(CC(CO)CO)c(=O)n3Cc3ccc(Cl)cc3)cc2)n1 [Compound I-2641]	12
Cc1ccc(Cn2c(=O)n(C)c(=O)[nH]/c2=N\c2ccc(Oc3cncc(C(N)=O)n3)cc2)cc1 [Compound I-2473]	8
Cc1cc(/N=c2\[nH]c(=O)n([C@H]3CC[C@H](C(=O)O)CC3)c(=O)n2Cc2ccc(Cl)cc2)ccc1OC(C)C [Compound I-0850]	62
Cn1c(=O)[nH]/c(=N\c2ccc(Oc3cccc(C(=O)O)n3)c(F)c2)n(Cc2ccc(Cl)cc2)c1=O [Compound I-2502]	7
NC(=O)Cn1c(=O)[nH]/c(=N\c2ccc(Oc3cccnn3)cc2)n(Cc2ccc(Cl)cc2)c1=O [Compound I-2689]	20
CCOC(=O)Cn1c(=O)[nH]/c(=N\c2ccc(Oc3cccnn3)cc2)n(Cc2ccc(Cl)cc2)c1=O [Compound I-2658]	5
CCOC(=O)C1(Cn2c(=O)[nH]/c(=N\c3ccc4oc(CC)c(C)c4c3)n(Cc3ccc(Cl)cc3)c2=O)CC1 [Compound I-1538]	17
O=c1[nH]/c(=N\c2ccc(Oc3ccon3)cc2)n(Cc2ccc(F)cc2)c(=O)n1CCCO [Compound I-2397]	39
Cn1c(=O)[nH]/c(=N\c2ccc(Oc3cc(C#N)ccn3)cc2)n(Cc2ccc(Cl)cc2)c1=O [Compound I-2341]	10
N#CNC(=O)Cn1c(=O)[nH]/c(=N\c2ccc(Oc3ccon3)cc2)n(Cc2ccc(Cl)cc2)c1=O [Compound I-2604]	21
CCOc1ccc(/N=c2\[nH]c(=O)n(CC(F)(F)C(=O)O)c(=O)n2Cc2ccc(C)cc2)cc1Cl [Compound I-0858]	22
CCOC(=O)CCn1c(=O)[nH]/c(=N\c2ccc3nc(CC)sc3c2)n(Cc2ccc(C)cc2)c1=O [Compound I-1506]	2
NC(=O)Cn1c(=O)[nH]/c(=N\c2ccc(Oc3ccon3)cc2)n(Cc2ccc(Cl)cc2)c1=O [Compound I-2512]	11

Structure (SMILES)	IC50 [nM]
CCOC(=O)Cn1c(=O)[nH]/c(=N\c2ccc(Oc3ccon3)c(F)c2)n(Cc2ccc(Cl)cc2)c1=O [Compound I-2578]	6
CCn1c(=O)[nH]/c(=N\c2ccc(Oc3ccc(C(=O)OC)nn3)cc2)n(Cc2ccc(Cl)cc2)c1=O [Compound I-2269]	2
COC(=O)[C@@H](C)Cn1c(=O)[nH]/c(=N\c2ccc(CC3CC3)c(Cl)c2)n(Cc2ccc(C)cc2)c1=O [Compound I-1511]	29
CCn1c(=O)[nH]/c(=N\c2ccc(Oc3cccc(-c4nnn[nH]4)n3)cc2)n(Cc2ccc(Cl)cc2)c1=O [Compound I-2602]	2
O=C(O)CCn1c(=O)[nH]/c(=N\c2ccc(Oc3ccon3)cc2)n(Cc2ccc(Cl)cc2)c1=O [Compound I-2435]	37
COC(=O)[C@@H](C)Cn1c(=O)[nH]/c(=N\c2ccc(OCC(C)C)c(C)c2)n(Cc2ccc(Cl)cc2)c1=O [Compound I-0831]	77
CCn1c(=O)[nH]/c(=N\[C@H]2CC[C@H](Oc3ccnc(C(=O)O)c3)CC2)n(Cc2ccc(Cl)cc2)c1=O [Compound I-2297]	65
CC(=O)N(C)CCCn1c(=O)[nH]/c(=N\c2ccc(OC(C)C)c(F)c2)n(Cc2ccc(Cl)cc2)c1=O [Compound I-2317]	3
CCn1c(=O)[nH]/c(=N\c2ccc(Oc3cnc(C(N)=O)cn3)cc2)n(Cc2ccc(Cl)cc2)c1=O [Compound I-2388]	3
COC(=O)[C@@H](C)Cn1c(=O)[nH]/c(=N\c2ccc(Oc3ccccc3)nc2)n(Cc2ccc(C)cc2)c1=O [Compound I-1515]	157
NC(=O)c1cccc(Oc2ccc(/N=c3\[nH]c(=O)n(CCC(=O)O)c(=O)n3Cc3ccc(Cl)cc3)cc2)n1 [Compound I-2693]	12
COCCn1c(=O)[nH]/c(=N\c2ccc(Oc3cncc(C(=O)OC)c3)cc2)n(Cc2ccc(Cl)cc2)c1=O [Compound I-2537]	5
COCCn1c(=O)[nH]/c(=N\c2ccc(Oc3cncc(C(=O)O)c3)cc2)n(Cc2ccc(Cl)cc2)c1=O [Compound I-2547]	8
Cc1cnc(Oc2ccc(/N=c3\[nH]c(=O)n(C[C@H](O)CO)c(=O)n3Cc3ccc(Cl)cc3)cc2)s1 [Compound I-2513]	6
CCn1c(=O)[nH]/c(=N\c2ccc(Oc3ccnc(NC(=O)OC(C)(C)C)c3)cc2)n(Cc2ccc(Cl)cc2)c1=O [Compound I-2304]	29
C[C@H](Cn1c(=O)[nH]/c(=N\c2ccc(N3CCCCC3)cc2)n(Cc2ccc(Cl)cc2)c1=O)C(=O)O [Compound I-1486]	43
